From patent US11673898B2, “Substituted inhibitors of menin-MLL and methods of use” (Kura Oncology, Inc., priority 2016, dated 2023) come the findings set out here.

Structures are written as SMILES. Where two headings read alike, the source gives them in different places.

Assay [1] relates to MLL-AF9 BMC. As to the kind of experiment: Cell proliferation assay (CellTiter-Glo). It counts as cell-based. As to the method: Example 9: Cell proliferation assay. The ability of a compound of the present disclosure to inhibit the growth of cells, such as human leukemia cell, acute myeloid leukemia cell, cells with an MLL fusion, control cells without an MLL fusion, VCaP, LNCaP, 22RV1, DU145, LNCaP-AR, MV4; 11, KOPN-8, ML-2, MOLM-13, RS4; 11, SEM, bone marrow cells (BMCs), MLL-AF9, MLL-AF4, MLL-ENL, MLL-CBP, MLL-GAS7, MLL-AF1p, MLL-AF6, HM-2, E2A-HLF, REH, U937, K562, KG-1, HL-60 and NB4 cells, is tested using a cell viability assay, such as the Promega CellTiter-Glo® Luminescent Cell Viability Assay (Promega Technical Bulletin, 2015, “CellTiter-Glo® Luminescent Cell Viability Assay”: 1-15, herein incorporated by reference in its entirety). Cells are plated at relevant concentrations, for example about 1×10^5-2×10^5 cells per well in a 96-well plate. A compound of the present disclosure is added at a concentration up to about 2 μM with eight, 2-fold serial dilutions for each compound. Cells are incubated at 37° C. for a period of time, for example, 72 hours, then cells in the control wells are counted. Media is changed to restore viable cell numbers to the original concentration, and compounds are re-supplied. Proliferation is measured about 72 hours later using Promega CellTiter-Glo® reagents, as per kit instructions.
(In general: Cellular ATP, detected with luciferase, serves as a proxy for viable cell number.)

Assay [2] has as its system MV4; 11-luc tumors. Description: Efficacy study in xenotransplantation mouse model of MLL leukemia (luminescence). It counts as in vivo. The following applies: NSG mice, 120 mg/kg b.i.d. oral gavage, 6 days of treatment. As to the method:
Example 20: Efficacy study in xenotransplantation mouse model ofMLL leukemia. […] Luciferase expressing human MV4; 11 leukemia cells (MV4; 11-luc) were engrafted intravenously via tail vein injection (1×10^7 cells/animal) When the mean luminescence of the cells reached approximately 1.5×10^6, the tumor-bearing mice were randomly assigned to a vehicle control or a compound treatment group (5 animals per group). Animals in each of the treatment groups were administered a different compound of the present disclosure by oral gavage (120 mg/kg b.i.d, 150 mg/kg b.i.d., 200 mg/kg b.i.d., or 200 mg/kg q.d.). Body weight was measured daily, while mean luminescence was measured 6 days after initiating the treatment with compound or vehicle.

The target in assay [3] is T1, Menin MLL 4-43 (Homo sapiens, UniProt O00255).
T1 sequence (O00255 1-610): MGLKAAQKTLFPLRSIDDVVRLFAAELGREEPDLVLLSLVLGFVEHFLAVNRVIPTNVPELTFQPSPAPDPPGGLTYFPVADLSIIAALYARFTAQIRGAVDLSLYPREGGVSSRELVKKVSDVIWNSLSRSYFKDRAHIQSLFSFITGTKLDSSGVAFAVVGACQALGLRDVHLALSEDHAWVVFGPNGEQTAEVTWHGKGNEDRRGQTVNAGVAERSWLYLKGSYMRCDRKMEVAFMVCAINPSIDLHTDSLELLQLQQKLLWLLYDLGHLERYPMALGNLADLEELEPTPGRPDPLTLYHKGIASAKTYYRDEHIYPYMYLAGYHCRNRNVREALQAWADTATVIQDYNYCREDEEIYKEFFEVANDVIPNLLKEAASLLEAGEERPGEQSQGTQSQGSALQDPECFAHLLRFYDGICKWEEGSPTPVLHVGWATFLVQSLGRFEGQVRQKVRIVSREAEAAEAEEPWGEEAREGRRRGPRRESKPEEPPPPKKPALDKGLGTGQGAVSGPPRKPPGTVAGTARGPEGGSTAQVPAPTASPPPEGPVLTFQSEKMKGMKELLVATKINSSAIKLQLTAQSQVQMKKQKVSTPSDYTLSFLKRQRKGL
Description: Fluorescence polarization (FP) competition assay of the menin-MLL interaction. It counts as binding. Background: Fluorescence polarisation rises when a labelled molecule tumbles more slowly, as on binding a larger partner.

Assay [4] concerns MOLM13 cells. As to the kind of experiment: Survival study in xenotransplantation MOLM13 xenograft model. The assay is classed as in vivo, mouse. As to the method: For survival studies in the xenotransplantation MOLM13 xenograft model, 6 to 8-week old female NSG mice were intravenously injected with 0.5×10^6 MOLM13 cells harboring […] translocation. At day 4 after transplantation, treatment was initiated with Compound C, 75 mg/kg, b.i.d., p.o. or vehicle (20% 2-hydroxypropyl-b-cyclodextrin with 5% cremophore) and was continued for 16 consecutive days in the compound treated mice or until terminal leukemia developed in the vehicle-treated mice.
Similarly, a 120 mg/kg b.i.d. treatment regimen of Compound D was initiated on day 6 after MOLM13 transplantation and continued for 16 consecutive days in the compound treated mice or until terminal leukemia developed in the vehicle-treated mice.

The test system of assay [5] is MLL fusion protein target genes HOXA9, DLX2, MEIS1 and differentiation marker CD11B. Description: qRT-PCR gene expression in bone marrow samples of treated xenotransplantation mice. It counts as in vivo, mouse. Conditions: Day 7 of treatment, qRT-PCR normalized to GAPDH. As to the method:
Animals were sacrificed on Day 7 of treatment and bone marrow samples collected and prepared for gene expression analysis. Expression levels of MLL fusion protein target genes HOXA9, DLX2, and/or MEIS1 were measured by qRT-PCR and are presented in FIG. 6, FIG. 9 and FIG. 12 as fold changes normalized to GAPDH expression.
(Quantitative PCR measures a nucleic acid by following its amplification.)

In assay [6] the test system is U937 cells. Description: MTT cell proliferation assay, control cell line. The assay is classed as cell-based. As to the method:
(§1) Example 18: Cell proliferation assays. The ability of a compound of the present disclosure to inhibit the growth of cells was tested in both MLL leukemia cell lines (e.g., MV4; 11, MOLM13 and/or KOPN8) and control cell lines (e.g., K562, REH, U937, KG-1, and/or HL-60) using the MTT cell proliferation assay (ATCC® 30-1010K). […] Cells were plated at about 1×10^5 cells per well in a 96-well plate. A compound of the present disclosure was added at a concentration up to about 2 μM with seven, 2-fold serial dilutions for each compound. Cells were incubated at 37° C. for 72 hours, then cells in the control wells were counted. Media was changed to restore viable cell numbers to the original concentration, and compounds were re-supplied. Proliferation was measured 96 hours later using MTT reagents, as per kit instructions. […] The GIso value of a compound of the present disclosure, such as Compound D of FIG. 11, was 10 nM in MV4; 11 cells (MLL-AF4 AML), 17 nM in MOLM13 cells (MLL-AF9 AML), 18 nM in KOPN8 (MLL-ENL AML) cells, greater than 2000 nM in HL-60 cells, and greater than 2000 nM in U937 cells. REH, K562, KG-1, and U937 cells are control cell lines without MLL fusions.

Assay [7] relates to HL-60 cells. As to the kind of experiment: MTT cell proliferation assay, control cell line. The assay is classed as cell-based. Conditions: HL-60 cells (control). As to the method: as §1
The test system of assay [8] is KOPN8 (MLL-ENL AML) cells. Description: MTT cell proliferation assay. The assay is classed as cell-based. As to the method: as §1
Assay [9] concerns MOLM13 cells (MLL-AF9 AML). As to the kind of experiment: MTT cell proliferation assay. It counts as cell-based. As to the method: as §1
Assay [10] has as its system MV4; 11 cells (MLL-AF4 AML). Description: MTT cell proliferation assay. The assay is classed as cell-based, human. As to the method: as §1

Compound `Cc1nc(NC2CCN(Cc3ccc4c(cc(C#N)n4C[C@H](C)N4CCC(S(C)(=O)=O)CC4)c3C)CC2)c2cc(CC(F)(F)F)sc2n1` [Compound 165] registered a GI50 in [1] of under 10 nM. In addition, in [2], the “Tumor growth (luminescence) relative to vehicle control” value was “inhibited tumor growth and induced tumor regression”. The IC50 in assay [3] (fluorescence polarization assay, read-out: Menin MLL 4-43 IC50) is under 50 nM; in assay [3] (read-out: IC50 value (ability to disrupt the menin-MLL interaction, per Example 6)) it was under 50 nM.

`Cc1nc(NC2CCN(Cc3ccc4c(cc(C#N)n4C[C@H](C)N4CCC(S(C)(=O)=O)CC4)c3C)CC2)c2cc(CC(F)(F)F)sc2n1` [Compound D]: the Median survival time in [4] (NSG mice, 120 mg/kg b.i.d., 16 consecutive days from day 6 after MOLM13 transplantation) was found to be 24 days. For the same compound, the Survival benefit in assay [4] (versus vehicle control group) is given as 75%; in [4] (versus vehicle control group (16 days)), 18 days. Also, the “Expression level of HOXA9” value in [5] is “substantially reduced”. The “Expression level of MEIS1” value in [5] is given as “substantially reduced”. Moreover, the “Expression of differentiation marker CD1 lb” value in [5] is reported as “elevated”. Further, the GI50 in assay [6] is over 2000 nM; in assay [7], over 2000 nM; in assay [8] it was 18 nM; in assay [9], 17 nM; in assay [10], 10 nM.

Usually GI50 stands for the concentration at which growth is held to half of that of the control. For orientation: IC50 means the concentration that inhibits the measured activity by half.
